In patent publication US20230081426A1, “COMPOUNDS AND METHODS FOR KRAS MODULATION AND INDICATIONS THEREFOR” (Plexxikon Inc., priority 2020, published 2023):

Tests used:
[1] = target: T1, G12D-mutant human KRAS (amino acid residues 1-188) (Homo sapiens, UniProt P01116, G12D); assay: KRAS Binding Disruption Assay (AlphaScreen; biotinylated KRpep-2d analogue or RAF1-RBD), G12D; details: KRAS G12D; geometric mean; read-out: KRAS GMean IC50 (uM) MUTATION: G12D
T1 construct: G12D or G12C-mutant human KRAS (amino acid residues 1-188) with FLAG tag; made in house; host or cells: E. coli
Method in brief: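 Compounds are titrated against 5-20 nM mutant KRAS and 5-20 nM of either a biotinylated KRpep-2d analogue or RAF1-RBD, incubated 1 h at 25° C. Disruption is detected as reduced Alpha signal after 1 h with donor and acceptor beads at 10 μg/mL.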

[2] = target: T2, G12V-mutant human KRAS (amino acid residues 1-188) (Homo sapiens, UniProt P01116, G12V); assay: KRAS Binding Competition Assay (AlphaScreen; biotinylated KRpep-2d analogue), G12V; details: geometric mean, read-out: KRAS GMean IC50 (uM) MUTATION: G12V
T2 construct: G12V-mutant human KRAS (amino acid residues 1-188) with FLAG tag was purified from E. coli; made in house; host or cells: E. coli

| IC50 [1] | IC50 [2] | Compound |
| --- | --- | --- |
| 0.0001 to 10 µM | 10 to 100 µM | OCC1(COc2nc(N3C[C@H]4CC[C@@H](C3)N4)c3ccc(-c4cc(O)cc5ccccc45)c(F)c3n2)CC1 [P-0614, 4-(4-((1R,5S)-3,8-diazabicyclo[3.2.1]octan-3-yl)-8-fluoro-2-((l (hydroxymethyl)cyclopropyl)methoxy)quinazolin-7-yl)naphthalen-2-ol] |
| 10 to 100 µM | 10 to 100 µM | CN1CCC[C@H]1COc1nc(N2[C@@H]3CC[C@H]2CN(C(=O)NC2COCC2(C)C)C3)c2ccc(-c3cc(O)cc4ccccc34)cc2n1 (stereo partly drawn) [P-0212, (1R,5S)-N-(4,4-dimethyltetrahydrofuran-3-yl)-8-(7-(3-hydroxynaphthalen-1-yl)-2-(((S)-1-methylpyrrolidin-2-yl)methoxy)quinazolin-4-yl)-3,8-diazabicyclo[3.2.1]octane-3-carboxamide] |
| 0.0001 to 10 µM | 100 to 1000 µM | Cc1cccc2c1N(c1ncc3c(N4C[C@H]5CC[C@@H](C4)N5)nc(OCC45CCCN4CCC5)nc3c1F)CC(O)C2 (stereo partly drawn) [P-0453, 1-(4-((1R,5S)-3,8-diazabicyclo[3.2.1]octan-3-yl)-8-fluoro-2-((tetrahydro-1H-pyrrolizin-7a(5H)-yl)methoxy)pyrido[4,3-d]pyrimidin-7-yl)-8-methyl-1,2,3,4-tetrahydroquinolin-3-ol] |
| 0.0001 to 10 µM | 10 to 100 µM | CN1CCN(CCCS(=O)(=O)N2[C@@H]3CC[C@H]2CN(c2nc(OC[C@@H]4CCCN4C)nc4c(F)c(-c5cc(O)cc6ccccc56)ccc24)C3)CC1 [P-0434, 4-(8-fluoro-4-((1R,5S)-8-((3-(4-methylpiperazin-1-yl)propyl)sulfonyl)-3,8-diazabicyclo[3.2.1]octan-3-yl)-2-(((S)-1-methylpyrrolidin-2-yl)methoxy)quinazolin-7-yl)naphthalen-2-ol] |
| 10 to 100 µM | 10 to 100 µM | CN1CCC[C@H]1COc1nc(N2[C@@H]3CC[C@H]2CNC3)c2ccc(-c3cccc4cccc(CO)c34)cc2n1 [P-0283, (8-(4-((1R,5S)-3,8-diazabicyclo[3.2.1]octan-8-yl)-2-(((S)-1-methylpyrrolidin-2-yl)methoxy)quinazolin-7-yl)naphthalen-1-yl)methanol] |
| 10 to 100 µM | 100 to 1000 µM | CN1CCC[C@H]1COc1nc(N2C[C@H]3CC[C@@H](C2)N3C2CNC2)c2ccc(-c3cc(O)cc4ccccc34)c(F)c2n1 [P-0430, 4-(4-((1R,5S)-8-(azetidin-3-yl)-3,8-diazabicyclo[3.2.1]octan-3-yl)-8-fluoro-2-(((S)-1-methylpyrrolidin-2-yl)methoxy)quinazolin-7-yl)naphthalen-2-ol] |
| 0.0001 to 10 µM | 0.0001 to 10 µM | Oc1cc(-c2c(Cl)cc3c(N4C[C@H]5CC[C@@H](C4)N5)nc(OCC45CCCN4CC(F)(F)C5)nc3c2F)c2ccccc2c1 (stereo partly drawn) [P-0047, 4-(4-((1R,5S)-3,8-diazabicyclo[3.2.1]octan-3-yl)-6-chloro-2-((2,2-difluorotetrahydro-1H-pyrrolizin-7a(5H)-yl)methoxy)-8-fluoroquinazolin-7-yl)naphthalen-2-ol] |
| 10 to 100 µM | 0.0001 to 10 µM | CN1CCC[C@H]1COc1nc(N2[C@@H]3CC[C@H]2CN(C(=N)NC#N)C3)c2ccc(-c3cc(O)cc4ccccc34)cc2n1 [P-0349, (1R,5S)-N-cyano-8-(7-(3-hydroxynaphthalen-1-yl)-2-(((S)-1-methylpyrrolidin-2-yl)methoxy)quinazolin-4-yl)-3,8-diazabicyclo[3.2.1]octane-3-carboximidamide] |
| 10 to 100 µM | 10 to 100 µM | CN1CCC[C@H]1COc1nc(N2C[C@H]3CC[C@@H](C2)N3)c2ccc(-c3ccc(Cl)c(N)c3)cc2n1 [P-0177, 5-(4-((1R,5S)-3,8-diazabicyclo[3.2.1]octan-3-yl)-2-(((S)-1-methylpyrrolidin-2-yl)methoxy)quinazolin-7-yl)-2-chloroaniline] |
| 0.0001 to 10 µM | 10 to 100 µM | Oc1cc(-c2ccc3c(N4C[C@H]5CC[C@@H](C4)N5)nc(OCC45CCCCN4CCCC5)nc3c2)c2ccccc2c1 [P-0095, 4-(4-((1R,5S)-3,8-diazabicyclo[3.2.1]octan-3-yl)-2-((octahydro-9aH-quinolizin-9a-yl)methoxy)quinazolin-7-yl)naphthalen-2-ol] |
| 10 to 100 µM | 10 to 100 µM | CN1CCC[C@H]1COc1nc(N2C[C@H]3CC[C@@H](C2)N3)c2ccc(Nc3n[nH]c4c(F)cccc34)c(F)c2n1 [P-0438, 4-((1R,5S)-3,8-diazabicyclo[3.2.1]octan-3-yl)-8-fluoro-N-(7-fluoro-1H-indazol-3-yl)-2-(((S)-1-methylpyrrolidin-2-yl)methoxy)quinazolin-7-amine] |
| 0.0001 to 10 µM | 10 to 100 µM | Oc1cc(-c2ccc3c(N4C[C@H]5CC[C@@H](C4)N5)nc(OC[C@@H]4CCCN4CCF)nc3c2)c2ccccc2c1 [P-0077, 4-(4-((1R,5S)-3,8-diazabicyclo[3.2.1]octan-3-yl)-2-(((S)-1-(2-fluoroethyl)pyrrolidin-2-yl)methoxy)quinazolin-7-yl)naphthalen-2-ol] |
| 0.0001 to 10 µM | 10 to 100 µM | CN1CCC[C@H]1COc1nc(N2C[C@H]3CC[C@@H](C2)N3)c2cc(Cl)c(-c3c[nH]c4ccccc34)c(F)c2n1 [P-0318, 4-((1R,5S)-3,8-diazabicyclo[3.2.1]octan-3-yl)-6-chloro-8-fluoro-7-(1H-indol-3-yl)-2-(((S)-1-methylpyrrolidin-2-yl)methoxy)quinazoline] |
| 100 to 1000 µM | 10 to 100 µM | CN1CCC[C@H]1COc1nc(N2C[C@H]3CC[C@@H](C2)N3)c2ccc(-c3ccc4c(c3)NC(=O)C4)cc2n1 [P-0174, 6-(4-((1R,5S)-3,8-diazabicyclo[3.2.1]octan-3-yl)-2-(((S)-1-methylpyrrolidin-2-yl)methoxy)quinazolin-7-yl)indolin-2-one] |
| 0.0001 to 10 µM | 0.0001 to 10 µM | CNC(=O)CN1[C@@H]2CC[C@H]1CN(c1nc(OCC34CCCN3CCC4)nc3c(F)c(-c4cc(O)cc5ccccc45)ccc13)C2 [P-0627, 2-((1R,5S)-3-(8-fluoro-7-(3-hydroxynaphthalen-1-yl)-2-((tetrahydro-1H-pyrrolizin-7a(5H)-yl)methoxy)quinazolin-4-yl)-3,8-diazabicyclo[3.2.1]octan-8-yl)-N-methylacetamide] |
| 10 to 100 µM | 100 to 1000 µM | CN1CCC[C@H]1COc1nc(N2C[C@H]3CC[C@@H](C2)N3)c2ccc(-n3nc(O)c4cccc(F)c43)c(F)c2n1 [P-0458, 1-(4-((1R,5S)-3,8-diazabicyclo[3.2.1]octan-3-yl)-8-fluoro-2-(((S)-1-methylpyrrolidin-2-yl)methoxy)quinazolin-7-yl)-7-fluoro-1H-indazol-3-ol] |
| 100 to 1000 µM | 100 to 1000 µM | CN1CCC[C@H]1COc1nc(N2C[C@H]3CC[C@@H](C2)N3)c2ccc(-c3ccc4cn[nH]c4c3)cc2n1 [P-0162, 4-((1R,5S)-3,8-diazabicyclo[3.2.1]octan-3-yl)-7-(1H-indazol-6-yl)-2-(((S)-1-methylpyrrolidin-2-yl)methoxy)quinazoline] |
| 0.0001 to 10 µM | 10 to 100 µM | CN1CCC[C@@H](COc2nc(N3C[C@H]4CC[C@@H](C3)N4)c3ccc(-c4cc(O)cc5ccccc45)cc3n2)C1 [P-0078, 4-(4-((1R,5S)-3,8-diazabicyclo[3.2.1]octan-3-yl)-2-(((R)-1-methylpiperidin-3-yl)methoxy)quinazolin-7-yl)naphthalen-2-ol] |
